Source: US11006626B2, “Compounds for protection of cells” (Sulfateq B.V., priority 2012, dated 2021)

Key:
[1] = system: Human Embryo Kidney (HEK) 293 cells; experiment: Hypothermia/rewarming injury of HEK cells, trypan blue viability count; type: cell-based; details: for % cells that survived / viability at 0.1 µM / viability at 1 µM / viability at 10 µM / viability at 100 µM / viability at 0.01 µM / viability at 1000 µM: 24 h at 4° C., 24 h rewarming; for % cells that survived, Mean: mean over the tested concentrations; for viability at 0.1 µM / viability at 1 µM / viability at 10 µM / viability at 100 µM / viability at 0.01 µM / viability at 1000 µM: Homo sapiens, HEK293, 24 h, read-out: % cells that survived
Description: Human Embryo Kidney (HEK) 293 cells were cultured in DMEM cell culture medium (Life Technologies, 41965-052) supplemented with fetal calf serum, penicillin and streptomycin. Cells were seeded at a density of 0.8-1.2E6 mL-1 in 25 cm2 polystyrene flasks, placed in a 37° C.
The compounds were dissolved in dimethyl sulfoxide (DMSO) to several concentrations. Before commencing experiments, this stock solution was dissolved in pre-warmed DMEM and further diluted to obtain a concentration range from 10 nM-1 mM. Cell culture medium was then replaced by these dilutions and cells were incubated in the presence of the compound for 1 hour. After incubation, lids were closed tightly and flasks were placed in a 4° C. room and cooled for 24 hours. After this cooling period, cells were placed back in the 37° C. incubator with lids closed and were allowed to rewarm for another 24 hours.
After this rewarming period, microscopic images were taken to assess cell morphology (Nikon D5100, Nikon Diaphot-TMD). Cell culture medium was collected and centrifuged (4 minutes, 2000 rpm). The supernatant was collected and pH was immediately measured to prevent equilibration of the pH by the carbonate buffer in the medium, while the pelleted cells were resuspended in 5 mL of PBS. Cells remaining in the flask were washed twice with phosphate buffered saline (PBS) while the washing product was discarded. Subsequently, the cells were trypsinized by addition of 0.5 mL of trypsine and pooled with the resuspended pellet. This cell suspension was then stained at a final concentration of 0.2% trypan blue (Sigma, T8154), followed by manual assessment of viability and cell number on a Bürker-Türk hemocytometer. To conclude the assay, cell culture medium glucose levels were measured (Roche Accutrend Plus) as an indication of metabolic activity. All of these steps were performed with care to prevent mechanical stress to influence or alter the viability of the cells after cooling.
The amount represents the % cells that survived. […] In the control, the same procedure was applied to two badges of HEK cells.

[2] = system: blood platelets; experiment: Cold storage of PRP blood platelets, aggregation of thrombocytes after storage; type: cell-based; set-up: key: − means that most of the thrombocytes were aggregated; a + indicates that a few cells were still viable but some cells aggregated; a ++ indicates that almost all cells were viable; details: 30 mM; PRP platelets stored at 4° C.; 264 hours
Description: PRP platelets were harvested and 2.1 ml was suspended in Poly Propylene tubes of 5 ml, closed with a stop.
Several compounds according to the invention were added to the blood platelets directly after preparing the PRP plasma and incubated during 10 minutes at 37° C. or 30 minutes at room temperature. The blood platelets with the compound were then stored at 4° C.
A control was stored under shaking conditions at room temperature. Another control was stored at 4° C. without the addition of a compound.
A sample was taken out of each tube after 264 hours after addition of the compound and tested as follows: • The color and coagulation properties were visually analysed. • The thrombocyte cells that survived were counted and it was evaluated whether the thrombocytes were aggregated. • It was evaluated if the thrombocytes still were able to function after stimulation by the addition of ADP or under influence of collagen in a 96 well plate. • The adhesion was evaluated, meaning the ability of the platelets to bind collagen in a 6 well plate preincubated with collagen. • Via an ELISA assay, it was evaluated whether thromboxane was secreted from the platelets. Thromboxane facilitates aggregation and is produced by activated blood platelets.
Table 3 provides an overview of the results of the addition of the compounds to the blood platelets and evaluates the aggregation of the thrombocytes after addition of the compound according to the invention and cooling until 4° C.

Cc1c(C)c2c(c(C)c1O)CCC(C)(C(=O)N1CCN(CCO)CC1)O2 (centres unmarked) [SUL - 138, (6-hydroxy-2,5,7,8-tetramethylchroman-2-yl)(4-(2-hydroxyethyl)piperazin-1-yl)methanone]
% cells that survived ([1]; 10 nM): 92.84%
% cells that survived ([1]; 100 nM): 91.74%
% cells that survived ([1]; 1 μM): 77.01%
% cells that survived ([1]; 10 μM): 91.71%
% cells that survived ([1]; 100 μM): 93.30%
% cells that survived ([1]; 1 mM): 86.94%
% cells that survived, Mean [1]: 89%
Aggregation of blood platelets after storage [2]: +

Cc1c(C)c2c(c(C)c1O)CCC(C)(CN1CCC[C@H]1CO)O2 (stereo partly drawn) [SUL - 128, 2-(((S)-2-(hydroxymethyl)pyrrolidin-1-yl)methyl)-2,5,7,8-tetramethylchroman-6-ol]
% cells that survived ([1]; 10 nM): 28.21%
% cells that survived ([1]; 1 mM): 0.00%
viability at 0.1 µM ([1]; 100 nM): 100%
viability at 1 µM ([1]; 1 μM): 100%
viability at 10 µM ([1]; 10 μM): 100%
viability at 100 µM ([1]; 100 μM): 99.4%
% cells that survived, Mean [1]: 71%

Cc1c(C)c2c(c(C)c1O)CCC(C)(C(=O)N1CCC[C@H]1CO)O2 (stereo partly drawn) [SUL - 112, (6-hydroxy-2,5,7,8-tetramethylchroman-2-yl)((S)-2-(hydroxymethyl)pyrrolidin-1-yl)methanone]
viability at 0.01 µM ([1]; 10 nM): 96.3%
viability at 0.1 µM ([1]; 100 nM): 96.5%
viability at 1 µM ([1]; 1 μM): 95.4%
viability at 10 µM ([1]; 10 μM): 93%
viability at 100 µM ([1]; 100 μM): 93.1%
viability at 1000 µM ([1]; 1 mM): 0%
% cells that survived, Mean [1]: 79%

Cc1c2c(c(C(C)C)c(O)c1C(C)C)CCC(C)(C(=O)NO)O2 (centres unmarked) [SUL - 131, N,6-dihydroxy-5,7-diisopropyl-2,8-dimethylchroman-2-carboxamide]
viability at 0.01 µM ([1]; 10 nM): 2.99%
viability at 0.1 µM ([1]; 100 nM): 1.59%
viability at 1 µM ([1]; 1 μM): 22.5%
viability at 10 µM ([1]; 10 μM): 91.1%
viability at 100 µM ([1]; 100 μM): 75.4%
viability at 1000 µM ([1]; 1 mM): 0%
% cells that survived, Mean [1]: 32%

Cc1c(C)c2c(c(C)c1O)CCC(C)(C(=O)NO)O2 (centres unmarked) [SUL - 90, N,6-dihydroxy-2,5,7,8-tetramethylchroman-2-carboxamide]
viability at 0.1 µM ([1]; 100 nM): 8.67%
viability at 1 µM ([1]; 1 μM): 91.3%
viability at 10 µM ([1]; 10 μM): 90.2%
viability at 100 µM ([1]; 100 μM): 77.9%
viability at 1000 µM ([1]; 1 mM): 20.4%
% cells that survived, Mean [1]: 58%

Cc1c(C)c2c(c(C)c1O)CCC(C)(C(=O)N[C@@H](C(N)=O)c1ccccc1)O2 (stereo partly drawn) [SUL - 111, N-((R)-2-amino-2-oxo-1-phenylethyl)-6-hydroxy-2,5,7,8-tetramethylchroman-2-carboxamide]
viability at 0.01 µM ([1]; 10 nM): 90.9%
viability at 0.1 µM ([1]; 100 nM): 81.6%
viability at 1 µM ([1]; 1 μM): 97.3%
viability at 10 µM ([1]; 10 μM): 93.7%
viability at 100 µM ([1]; 100 μM): 94.3%
viability at 1000 µM ([1]; 1 mM): 79.2%
% cells that survived, Mean [1]: 90%

Cc1c(C)c2c(c(C)c1O)CCC(C)(CN1CCC[C@H]1CO)O2 (stereo partly drawn) [SUL - 135, 2-(((S)-2-(hydroxymethyl)pyrrolidin-1-yl)methyl)-2,5,7,8-tetramethylchroman-6-ol]
% cells that survived ([1]; 10 nM): 71.94%
% cells that survived ([1]; 100 nM): 83.90%
% cells that survived ([1]; 1 μM): 93.82%
% cells that survived ([1]; 10 μM): 93.85%
% cells that survived ([1]; 100 μM): 83.46%
% cells that survived ([1]; 1 mM): 33.06%
% cells that survived, Mean [1]: 77%

Cc1c(C)c2c(c(C)c1O)CC[C@](C)(C(=O)O)O2 [SUL - 85, (R)-6-hydroxy-2,5,7,8-tetramethylchroman-2-carboxylic acid]
viability at 0.1 µM ([1]; 100 nM): 1.23%
viability at 1 µM ([1]; 1 μM): 0%
viability at 10 µM ([1]; 10 μM): 1.43%
viability at 100 µM ([1]; 100 μM): 84.9%
viability at 1000 µM ([1]; 1 mM): 78.3%
% cells that survived, Mean [1]: 33%

CCOC(=O)CN1CCN(C(=O)C2(C)CCc3c(C)c(O)c(C)c(C)c3O2)CC1 (centres unmarked) [SUL - 140, ethyl 2-(4-(6-hydroxy-2,5,7,8-tetramethylchroman-2-carbonyl)piperazin-1-yl)acetate]
viability at 0.01 µM ([1]; 10 nM): 8.7%
viability at 0.1 µM ([1]; 100 nM): 17.9%
viability at 1 µM ([1]; 1 μM): 95.7%
viability at 10 µM ([1]; 10 μM): 97%
viability at 100 µM ([1]; 100 μM): 94.6%
viability at 1000 µM ([1]; 1 mM): 0%
% cells that survived, Mean [1]: 52%
